Test results taken from ChEMBL document CHEMBL1782000, “Thiazole-based chalcones as potent antimicrobial agents. Synthesis and biological evaluation” (2011).
Converted amounts (≈) assume the structure as drawn.

Legend:
Staphylococcus aureus [1] = experiment: Antibacterial activity against Staphylococcus aureus ATCC 6538 after 24 hrs by microdilution method; type: functional; settings: ATCC 6538, 24 h
Bacillus cereus [2] = experiment: Antibacterial activity against Bacillus cereus clinical isolate after 24 hrs by microdilution method; type: functional
Micrococcus flavus [3] = experiment: Antibacterial activity against Micrococcus flavus ATCC 10240 after 24 hrs by microdilution method; type: functional; settings: ATCC 10240, 24 h
Listeria monocytogenes [4] = experiment: Antibacterial activity against Listeria monocytogenes NCTC 7973 after 24 hrs by microdilution method; type: functional; settings: NCTC 7973, 24 h
Pseudomonas aeruginosa [5] = experiment: Antibacterial activity against Pseudomonas aeruginosa ATCC 27853 after 24 hrs by microdilution method; type: functional; settings: ATCC 27853, 24 h
Salmonella typhimurium [6] = experiment: Antibacterial activity against Salmonella Typhimurium ATCC 13311 after 24 hrs by microdilution method; type: functional, Salmonella enterica subsp. enterica serovar Typhimurium; settings: Salmonella enterica, ATCC 13311, 24 h
Escherichia coli [7] = experiment: Antibacterial activity against Escherichia coli ATCC 35210 after 24 hrs by microdilution method; type: functional; settings: ATCC 35210, 24 h
Enterococcus faecalis [8] = experiment: Antibacterial activity against Enterococcus faecalis isolate obtained from human after 24 hrs by microdilution method; type: functional
Staphylococcus aureus [9] = experiment: Bactericidal activity against Staphylococcus aureus ATCC 6538 after 24 hrs; type: functional; settings: ATCC 6538, 24 h
Bacillus cereus [10] = experiment: Bactericidal activity against Bacillus cereus clinical isolate after 24 hrs; type: functional
Micrococcus flavus [11] = experiment: Bactericidal activity against Micrococcus flavus ATCC 10240 after 24 hrs; type: functional; settings: ATCC 10240, 24 h
Listeria monocytogenes [12] = experiment: Bactericidal activity against Listeria monocytogenes NCTC 7973 after 24 hrs; type: functional; settings: NCTC 7973, 24 h
Pseudomonas aeruginosa [13] = experiment: Bactericidal activity against Pseudomonas aeruginosa ATCC 27853 after 24 hrs; type: functional; settings: ATCC 27853, 24 h
Salmonella typhimurium [14] = experiment: Bactericidal activity against Salmonella Typhimurium ATCC 13311 after 24 hrs; type: functional, Salmonella enterica subsp. enterica serovar Typhimurium; settings: Salmonella enterica, ATCC 13311, 24 h
Escherichia coli [15] = experiment: Bactericidal activity against Escherichia coli ATCC 35210 after 24 hrs; type: functional; settings: ATCC 35210, 24 h
Enterococcus faecalis [16] = experiment: Bactericidal activity against Enterococcus faecalis isolate obtained from human after 24 hrs; type: functional
Aspergillus ochraceus [17] = experiment: Antifungal activity against Aspergillus ochraceus ATCC 12066 after 72 hrs by serial dilution method; type: functional; settings: ATCC 12066, 72 h
Aspergillus versicolor [18] = experiment: Antifungal activity against Aspergillus versicolor ATCC 11730 after 72 hrs by serial dilution method; type: functional; settings: ATCC 11730, 72 h
Aspergillus niger [19] = experiment: Antifungal activity against Aspergillus niger ATCC 6275 after 72 hrs by serial dilution method; type: functional; settings: ATCC 6275, 72 h
Aspergillus fumigatus [20] = experiment: Antifungal activity against Aspergillus fumigatus plant isolate after 72 hrs by serial dilution method; type: functional
Trichoderma viride [21] = experiment: Antifungal activity against Trichoderma viride IAM 5061 after 72 hrs by serial dilution method; type: functional; settings: IAM 5061, 72 h
Penicillium ochrochloron [22] = experiment: Antifungal activity against Penicillium ochrochloron ATCC 9112 after 72 hrs by serial dilution method; type: functional; settings: ATCC 9112, 72 h
Talaromyces funiculosus [23] = experiment: Antifungal activity against Penicillium funiculosum ATCC 36839 after 72 hrs by serial dilution method; type: functional; settings: ATCC 36839, 72 h
[24] = Antifungal activity against Fusarium sporotrichioides IMT 496 after 72 hrs by serial dilution method; type: functional
Aspergillus ochraceus [25] = experiment: Fungicidal activity against Aspergillus ochraceus ATCC 12066 after 72 hrs; type: functional; settings: ATCC 12066, 72 h
Aspergillus versicolor [26] = experiment: Fungicidal activity against Aspergillus versicolor ATCC 11730 after 72 hrs; type: functional; settings: ATCC 11730, 72 h
Aspergillus niger [27] = experiment: Fungicidal activity against Aspergillus niger ATCC 6275 after 72 hrs; type: functional; settings: ATCC 6275, 72 h
Aspergillus fumigatus [28] = experiment: Fungicidal activity against Aspergillus fumigatus plant isolate after 72 hrs; type: functional
Trichoderma viride [29] = experiment: Fungicidal activity against Trichoderma viride IAM 5061 after 72 hrs; type: functional; settings: IAM 5061, 72 h
Penicillium ochrochloron [30] = experiment: Fungicidal activity against Penicillium ochrochloron ATCC 9112 after 72 hrs; type: functional; settings: ATCC 9112, 72 h
Talaromyces funiculosus [31] = experiment: Fungicidal activity against Penicillium funiculosum ATCC 36839 after 72 hrs; type: functional; settings: ATCC 36839, 72 h
[32] = tested on: Fusarium sporotrichioides; experiment: Fungicidal activity against Fusarium sporotrichioides IMT 496 after 72 hrs; type: functional; settings: IMT 496, 72 h

Row | Structure (SMILES) | MIC (Staphylococcus aureus [1]) | MIC (Bacillus cereus [2]) | MIC (Micrococcus flavus [3]) | MIC (Listeria monocytogenes [4]) | MIC (Aspergillus ochraceus [17]) | MIC (Aspergillus versicolor [18]) | MIC (Aspergillus niger [19]) | MIC (Aspergillus fumigatus [20]) | MIC (Trichoderma viride [21]) | MIC (Penicillium ochrochloron [22]) | MIC (Talaromyces funiculosus [23]) | MIC (10'-2 umol/ml) [24] | MFC (Aspergillus ochraceus [25]) | MFC (Aspergillus versicolor [26]) | MFC (Aspergillus niger [27]) | MFC (Aspergillus fumigatus [28]) | MFC (Trichoderma viride [29]) | MFC (Penicillium ochrochloron [30]) | MFC (Talaromyces funiculosus [31]) | MFC [32] | other results
1 | CNc1nc(C)c(C(=O)/C=C/c2ccc(Cl)cc2Cl)s1 | 306 µM (≈ 100 µg/mL) | 229 µM (≈ 75 µg/mL) | 306 µM (≈ 100 µg/mL) | 306 µM (≈ 100 µg/mL) | 306 µM (≈ 100 µg/mL) | 153 µM (≈ 50 µg/mL) | 459 µM (≈ 150 µg/mL) | 153 µM (≈ 50 µg/mL) | 153 µM (≈ 50 µg/mL) | 306 µM (≈ 100 µg/mL) | 153 µM (≈ 50 µg/mL) | 15.3 | 612 µM (≈ 200 µg/mL) | 612 µM (≈ 200 µg/mL) | 612 µM (≈ 200 µg/mL) | 612 µM (≈ 200 µg/mL) | 306 µM (≈ 100 µg/mL) | 612 µM (≈ 200 µg/mL) | 306 µM (≈ 100 µg/mL) | 306 µM (≈ 100 µg/mL) | MIC (Pseudomonas aeruginosa [5]): 306 µM (≈ 100 µg/mL); MIC (Salmonella typhimurium [6]): 229 µM (≈ 75 µg/mL); MIC (Escherichia coli [7]): 306 µM (≈ 100 µg/mL); MIC (Enterococcus faecalis [8]): 306 µM (≈ 100 µg/mL); MBC (Staphylococcus aureus [9]): 459 µM (≈ 150 µg/mL); MBC (Bacillus cereus [10]): 306 µM (≈ 100 µg/mL); MBC (Micrococcus flavus [11]): 459 µM (≈ 150 µg/mL); MBC (Listeria monocytogenes [12]): 459 µM (≈ 150 µg/mL); MBC (Pseudomonas aeruginosa [13]): 306 µM (≈ 100 µg/mL); MBC (Salmonella typhimurium [14]): 306 µM (≈ 100 µg/mL); MBC (Escherichia coli [15]): 459 µM (≈ 150 µg/mL); MBC (Enterococcus faecalis [16]): 459 µM (≈ 150 µg/mL)
2 | CC(=O)N1CCN(c2ccc(OCC3COC(Cn4ccnc4)(c4ccc(Cl)cc4Cl)O3)cc2)CC1 (centres undefined) [KETOCONAZOLE] |  |  |  |  | 47 µM (≈ 25 µg/mL) | 18.8 µM (≈ 9.99 µg/mL) | 282 µM (≈ 150 µg/mL) | 47 µM (≈ 25 µg/mL) | 94.2 µM (≈ 50.1 µg/mL) | 18.8 µM (≈ 9.99 µg/mL) | 9.4 µM (≈ 5 µg/mL) | 9.42 | 94.2 µM (≈ 50.1 µg/mL) | 47 µM (≈ 25 µg/mL) | 470 µM (≈ 250 µg/mL) | 94.2 µM (≈ 50.1 µg/mL) | 188 µM (≈ 99.9 µg/mL) | 47 µM (≈ 25 µg/mL) | 18.8 µM (≈ 9.99 µg/mL) | 188 µM (≈ 99.9 µg/mL) | 
3 | CNc1nc(C)c(C(=O)/C=C/c2c(Cl)cccc2Cl)s1 | 306 µM (≈ 100 µg/mL) | 260 µM (≈ 85 µg/mL) | 229 µM (≈ 75 µg/mL) | 306 µM (≈ 100 µg/mL) | 459 µM (≈ 150 µg/mL) | 306 µM (≈ 100 µg/mL) | 306 µM (≈ 100 µg/mL) | 306 µM (≈ 100 µg/mL) | 153 µM (≈ 50 µg/mL) | 153 µM (≈ 50 µg/mL) | 306 µM (≈ 100 µg/mL) | 15.3 | 612 µM (≈ 200 µg/mL) | 459 µM (≈ 150 µg/mL) | 612 µM (≈ 200 µg/mL) | 306 µM (≈ 100 µg/mL) | 306 µM (≈ 100 µg/mL) | 459 µM (≈ 150 µg/mL) | 459 µM (≈ 150 µg/mL) | 459 µM (≈ 150 µg/mL) | MIC (Pseudomonas aeruginosa [5]): 229 µM (≈ 75 µg/mL); MIC (Salmonella typhimurium [6]): 306 µM (≈ 100 µg/mL); MIC (Escherichia coli [7]): 229 µM (≈ 75 µg/mL); MIC (Enterococcus faecalis [8]): 153 µM (≈ 50 µg/mL); MBC (Staphylococcus aureus [9]): 459 µM (≈ 150 µg/mL); MBC (Bacillus cereus [10]): 306 µM (≈ 100 µg/mL); MBC (Micrococcus flavus [11]): 306 µM (≈ 100 µg/mL); MBC (Listeria monocytogenes [12]): 459 µM (≈ 150 µg/mL); MBC (Pseudomonas aeruginosa [13]): 306 µM (≈ 100 µg/mL); MBC (Salmonella typhimurium [14]): 306 µM (≈ 100 µg/mL); MBC (Escherichia coli [15]): 306 µM (≈ 100 µg/mL); MBC (Enterococcus faecalis [16]): 306 µM (≈ 100 µg/mL)
4 | CNc1nc(C)c(C(=O)/C=C/c2cccc(Cl)c2)s1 | 342 µM (≈ 100 µg/mL) | 342 µM (≈ 100 µg/mL) | 256 µM (≈ 75.1 µg/mL) | 342 µM (≈ 100 µg/mL) | 340 µM (≈ 99.5 µg/mL) | 340 µM (≈ 99.5 µg/mL) | 340 µM (≈ 99.5 µg/mL) | 340 µM (≈ 99.5 µg/mL) | 170 µM (≈ 49.8 µg/mL) | 340 µM (≈ 99.5 µg/mL) | 340 µM (≈ 99.5 µg/mL) | 17 | 513 µM (≈ 150 µg/mL) | 513 µM (≈ 150 µg/mL) | 854 µM (≈ 250 µg/mL) | 513 µM (≈ 150 µg/mL) | 340 µM (≈ 99.5 µg/mL) | 513 µM (≈ 150 µg/mL) | 513 µM (≈ 150 µg/mL) | 683 µM (≈ 200 µg/mL) | MIC (Pseudomonas aeruginosa [5]): 342 µM (≈ 100 µg/mL); MIC (Salmonella typhimurium [6]): 290 µM (≈ 85.1 µg/mL); MIC (Escherichia coli [7]): 290 µM (≈ 85.1 µg/mL); MIC (Enterococcus faecalis [8]): 85.4 µM (≈ 25 µg/mL); MBC (Staphylococcus aureus [9]): 513 µM (≈ 150 µg/mL); MBC (Bacillus cereus [10]): 513 µM (≈ 150 µg/mL); MBC (Micrococcus flavus [11]): 342 µM (≈ 100 µg/mL); MBC (Listeria monocytogenes [12]): 513 µM (≈ 150 µg/mL); MBC (Pseudomonas aeruginosa [13]): 513 µM (≈ 150 µg/mL); MBC (Salmonella typhimurium [14]): 342 µM (≈ 100 µg/mL); MBC (Escherichia coli [15]): 342 µM (≈ 100 µg/mL); MBC (Enterococcus faecalis [16]): 342 µM (≈ 100 µg/mL)
5 | CNc1nc(C)c(C(=O)/C=C/c2ccc([N+](=O)[O-])cc2)s1 | 330 µM (≈ 100 µg/mL) | 330 µM (≈ 100 µg/mL) | 330 µM (≈ 100 µg/mL) | 330 µM (≈ 100 µg/mL) | 250 µM (≈ 75.8 µg/mL) | 330 µM (≈ 100 µg/mL) | 330 µM (≈ 100 µg/mL) | 330 µM (≈ 100 µg/mL) | 165 µM (≈ 50.1 µg/mL) | 330 µM (≈ 100 µg/mL) | 330 µM (≈ 100 µg/mL) | 16.5 | 330 µM (≈ 100 µg/mL) | 496 µM (≈ 150 µg/mL) | 825 µM (≈ 250 µg/mL) | 496 µM (≈ 150 µg/mL) | 330 µM (≈ 100 µg/mL) | 496 µM (≈ 150 µg/mL) | 496 µM (≈ 150 µg/mL) | 660 µM (≈ 200 µg/mL) | MIC (Pseudomonas aeruginosa [5]): 330 µM (≈ 100 µg/mL); MIC (Salmonella typhimurium [6]): 248 µM (≈ 75.1 µg/mL); MIC (Escherichia coli [7]): 248 µM (≈ 75.1 µg/mL); MIC (Enterococcus faecalis [8]): 165 µM (≈ 50.1 µg/mL); MBC (Staphylococcus aureus [9]): 495 µM (≈ 150 µg/mL); MBC (Bacillus cereus [10]): 495 µM (≈ 150 µg/mL); MBC (Micrococcus flavus [11]): 495 µM (≈ 150 µg/mL); MBC (Listeria monocytogenes [12]): 495 µM (≈ 150 µg/mL); MBC (Pseudomonas aeruginosa [13]): 495 µM (≈ 150 µg/mL); MBC (Salmonella typhimurium [14]): 330 µM (≈ 100 µg/mL); MBC (Escherichia coli [15]): 330 µM (≈ 100 µg/mL); MBC (Enterococcus faecalis [16]): 330 µM (≈ 100 µg/mL)
